*1 amine or outer side, *2 acyl side, *3 side chain or, on linkers, in order; H or OH if unused. Where a SMILES comes first, the peptide text is derived from it. Side-chain parts run from the residue outwards. [ ]: non-standard residue; d: D form. The star is where a group is joined. X3 = CCCCCCCCCCCCCCCC(=O)N[C@@H](CCC(=O)N[C@@H](CCC(=O)N[C@@H](CCC(=O)N[C@@H](CCC(=O)NCCCC[C@H](NC(=O)CCC(=O)NCCCOCCOCCOCCCNC(=O)CCC(=O)NCCCOCCOCCOCCCN*)C(N)=O)C(=O)O)C(=O)O)C(=O)O)C(=O)O; X5 = CCCCCCCCCCCCCCCC(=O)N[C@@H](CCC(=O)NCCCC[C@H](NC(=O)CC[C@H](NC(=O)CC[C@H](NC(=O)CC[C@H](NC(=O)CCC(=O)NCCCOCCOCCOCCCNC(=O)CCC(=O)NCCCOCCOCCOCCCN*)C(=O)O)C(=O)O)C(=O)O)C(N)=O)C(=O)O; γGlu = O=C(O)[C@H](CCC(=O)[*:2])N[*:1]; Stearoyl = CCCCCCCCCCCCCCCCCC(=O)*; Palmitoyl = CCCCCCCCCCCCCCCC(=O)*; αMeK = C[C@](N)(CCCCN)C(=O)O; Nle = CCCC[C@H](N)C(=O)O; AEEA = NCCOCCOCC(=O)O; Aib = CC(C)(N)C(=O)O
What was measured:
RXFP1 = target: T1, RXFP1 (Homo sapiens, UniProt Q9HBX9); assay: OVCAR5 cAMP assay (HTRF), RXFP1 agonist activity; format: cell-based; conditions: for EC50: OVCAR5 cells, cAMP HTRF, read-out: EC50 (nM), OVCAR 5 cells (cAMP); for Emax: OVCAR-5, maximal cAMP relative to H2-relaxin maximum (100%), read-out: EMax, OVCAR 5 cells (cAMP)
T1 construct: OVCAR5 cells expressing endogenous RXFP1; endogenous in cells; host or cells: OVCAR5 cells
T1 sequence (Q9HBX9 1-757): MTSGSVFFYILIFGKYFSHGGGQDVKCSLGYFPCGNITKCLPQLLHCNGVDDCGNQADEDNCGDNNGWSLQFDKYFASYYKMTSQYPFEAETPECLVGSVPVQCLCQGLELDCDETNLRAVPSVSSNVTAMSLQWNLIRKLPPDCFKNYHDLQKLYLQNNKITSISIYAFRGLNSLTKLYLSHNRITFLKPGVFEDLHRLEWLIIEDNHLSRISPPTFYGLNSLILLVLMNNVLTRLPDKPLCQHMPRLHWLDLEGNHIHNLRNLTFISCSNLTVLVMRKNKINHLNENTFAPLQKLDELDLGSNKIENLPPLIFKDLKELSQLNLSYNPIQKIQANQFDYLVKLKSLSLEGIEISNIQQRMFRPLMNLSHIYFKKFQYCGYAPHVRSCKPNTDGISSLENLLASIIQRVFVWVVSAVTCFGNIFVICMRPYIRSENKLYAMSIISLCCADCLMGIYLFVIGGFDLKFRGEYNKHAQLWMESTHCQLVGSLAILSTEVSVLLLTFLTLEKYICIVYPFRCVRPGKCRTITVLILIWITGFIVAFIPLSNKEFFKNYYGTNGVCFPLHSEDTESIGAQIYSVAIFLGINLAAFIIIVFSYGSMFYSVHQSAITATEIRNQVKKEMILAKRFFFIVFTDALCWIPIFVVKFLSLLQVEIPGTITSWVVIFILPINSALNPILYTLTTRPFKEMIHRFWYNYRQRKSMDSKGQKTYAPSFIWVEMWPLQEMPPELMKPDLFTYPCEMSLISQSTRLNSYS
Method in brief: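 OVCAR5 cells (endogenous RXFP1) pretreated 40 min at 37° C with 1 mM IBMX, then exposed to peptides in serum-free medium for 30 min at 37° C. Lysate cAMP read by HTRF; EC50 from variable-slope sigmoidal fit; Emax as % of H2-relaxin maximal cAMP in same run.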

[1] = Pharmacokinetic (PK) determination after i.v. or s.c. administration to rats; format: in vivo, Sprague Dawley rats; conditions: Sprague Dawley, Rat PK; for C0 / half-life: iv, 1 mg/kg i.v.; for C0: extrapolated plasma concentration at t=0, read-out: C0; for half-life / Cmax / Tmax / bioavailability: plasma; for half-life: read-out: T½ (converted); for Cmax / Tmax: sc, 3 mg/kg s.c.; for bioavailability: subcutaneous, 3 mg/kg s.c. vs 1 mg/kg i.v., dose-corrected AUC ratio
Method in brief: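 Sprague Dawley rats received peptide in PBS at 1 mg/kg i.v. or 3 mg/kg s.c., dose corrected for salts, solvent and purity. Plasma analysed by LC/MS after protein precipitation; non-compartmental PK, BLQ values set to zero, F% as dose-corrected s.c./i.v. AUC ratio.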

Row | EC50 (RXFP1) [nM] | Emax (RXFP1) [%] | C0 [1] [nM] | half-life [1] [h] | Cmax [1] [nM] | Tmax [1] [h] | bioavailability [1] [%] | Compound
1 | 0.12 | 91 | 3200 | 5 | 2300 | 5 | 64 | CCCCCCCCCCCCCCCC(=O)N[C@@H](CCC(=O)N[C@@H](CCC(=O)N[C@@H](CCC(=O)N[C@@H](CCC(=O)NCCCC[C@H](NC(=O)CCC(=O)NCCCOCCOCCOCCCNC(=O)CCC(=O)NCCCOCCOCCOCCCNC(=O)[C@H](CCCCNC(C)=O)NC(=O)[C@H](C)NC(=O)[C@H](CCCNC(=N)N)NC(=O)[C@](C)(CCCCN)NC(=O)[C@H](CO)NC(=O)[C@H](Cc1ccccc1)NC(=O)[C@@H](NC(=O)[C@H](CO)NC(=O)[C@H](CCCC)NC(=O)CNC(=O)[C@H](CCC(=O)O)NC(=O)C(C)(C)NC(=O)C(C)(C)NC(=O)[C@@H](NC(=O)[C@H](CCCCNC(C)=O)NC(=O)[C@H](C)NC(=O)[C@H](CCCNC(=N)N)NC(=O)[C@@H](NC(=O)[C@H](CCCCN)NC(=O)[C@H](CCC(=O)O)NC(=O)[C@H](CCCNC(=N)N)NC(=O)CNC(=O)[C@H](CCC(=O)O)NC(=O)[C@H](CC(C)C)NC(C)=O)C(C)C)[C@@H](C)CC)[C@@H](C)O)C(N)=O)C(=O)O)C(=O)O)C(=O)O)C(=O)O [compound 162] (Ac-LEGREKVRAK(Ac)I[Aib][Aib]EG[Nle]STFS[αMeK]RAK(Ac)-X3)
2 | 0.02 | 89 | 4350 | 6.69 | 1510 | 8 | 59 | CCCCCCCCCCCCCCCC(=O)N[C@@H](CCC(=O)NCCCC[C@H](NC(=O)CC[C@H](NC(=O)CC[C@H](NC(=O)CC[C@H](NC(=O)CCC(=O)NCCCOCCOCCOCCCNC(=O)CCC(=O)NCCCOCCOCCOCCCNC(=O)[C@H](CCCCNC(C)=O)NC(=O)[C@H](C)NC(=O)[C@H](CCCNC(=N)N)NC(=O)[C@](C)(CCCCN)NC(=O)[C@H](CO)NC(=O)[C@H](Cc1ccccc1)NC(=O)[C@@H](NC(=O)[C@H](CO)NC(=O)[C@H](CCCC)NC(=O)CNC(=O)[C@H](CCC(=O)O)NC(=O)C(C)(C)NC(=O)C(C)(C)NC(=O)[C@@H](NC(=O)[C@H](CCCCNC(C)=O)NC(=O)[C@H](C)NC(=O)[C@H](CCCNC(=N)N)NC(=O)[C@@H](NC(=O)[C@H](CCCCN)NC(=O)[C@H](CCC(=O)O)NC(=O)[C@H](CCCNC(=N)N)NC(=O)CNC(=O)[C@H](CCC(=O)O)NC(=O)[C@H](CC(C)C)NC(C)=O)C(C)C)[C@@H](C)CC)[C@@H](C)O)C(=O)O)C(=O)O)C(=O)O)C(N)=O)C(=O)O [compound 157] (Ac-LEGREKVRAK(Ac)I[Aib][Aib]EG[Nle]STFS[αMeK]RAK(Ac)-X5)

Second part, the compound before the results:

Row | Compound | EC50 (RXFP1) [nM] | Emax (RXFP1) [%] | C0 [1] [nM] | half-life [1] [h] | Cmax [1] [nM] | Tmax [1] [h] | bioavailability [1] [%]
3 | CCCCCCCCCCCCCCCC(=O)N[C@@H](CCC(=O)NCCCC[C@H](NC(=O)CC[C@H](NC(=O)CC[C@H](NC(=O)CC[C@H](NC(=O)COCCOCCNC(=O)COCCOCCNC(=O)COCCOCCNC(=O)COCCOCCNC(=O)[C@H](CCCCNC(C)=O)NC(=O)[C@H](CCCCN)NC(=O)[C@H](CCCNC(=N)N)NC(=O)[C@](C)(CCCCN)NC(=O)[C@H](CO)NC(=O)[C@H](Cc1ccccc1)NC(=O)[C@@H](NC(=O)[C@H](CO)NC(=O)[C@H](CCCC)NC(=O)CNC(=O)[C@H](CCC(=O)O)NC(=O)C(C)(C)NC(=O)C(C)(C)NC(=O)[C@@H](NC(=O)[C@H](CCCCNC(C)=O)NC(=O)[C@H](C)NC(=O)[C@H](CCCNC(=N)N)NC(=O)[C@@H](NC(=O)[C@H](CCCCN)NC(=O)[C@H](CCC(=O)O)NC(=O)[C@H](CCCNC(=N)N)NC(=O)CNC(=O)[C@H](CCC(=O)O)NC(=O)[C@H](CC(C)C)NC(C)=O)C(C)C)[C@@H](C)CC)[C@@H](C)O)C(=O)O)C(=O)O)C(=O)O)C(N)=O)C(=O)O [compound 145] (Ac-LEGREKVRAK(Ac)I[Aib][Aib]EG[Nle]STFS[αMeK]RKK(Ac)[AEEA][AEEA][AEEA][AEEA][γGlu][γGlu][γGlu]K([γGlu-Palmitoyl])-NH2) | 0.4 | 99 | 3440 | 5.4 | 1670 | 8 | 70
4 | CCCCCCCCCCCCCCCCCC(=O)N[C@@H](CCC(=O)NCCOCCOCC(=O)N[C@@H](CCC(=O)N[C@@H](CCC(=O)NCCOCCOCC(=O)NCCOCCOCC(=O)NCCCC[C@H](NC(=O)[C@H](CCCCN)NC(=O)[C@H](CCCNC(=N)N)NC(=O)C(C)(C)NC(=O)[C@H](CO)NC(=O)[C@H](Cc1c[nH]c2ccccc12)NC(=O)[C@@H](NC(=O)[C@H](CO)NC(=O)[C@H](CCCC)NC(=O)CNC(=O)[C@H](CCC(=O)O)NC(=O)C(C)(C)NC(=O)C(C)(C)NC(=O)[C@@H](NC(=O)[C@H](CCC(N)=O)NC(=O)[C@H](C)NC(=O)[C@H](CCCNC(=N)N)NC(=O)[C@@H](NC(=O)[C@H](CCCCN)NC(=O)[C@H](CCC(=O)O)NC(=O)[C@H](CCCNC(=N)N)NC(=O)CNC(=O)[C@H](CCC(=O)O)NC(=O)[C@H](CC(C)C)NC(C)=O)C(C)C)[C@@H](C)CC)[C@@H](C)O)C(N)=O)C(=O)O)C(=O)O)C(=O)O [compound 100] (Ac-LEGREKVRAQI[Aib][Aib]EG[Nle]STWS[Aib]RKK([AEEA-AEEA-γGlu-γGlu-AEEA-γGlu-Stearoyl])-NH2) | 0.16 | 90 | 3100 | 2.8 | 2360 | 7 | 41
5 | CCCCCCCCCCCCCCCC(=O)N[C@@H](CCC(=O)N[C@@H](CCC(=O)N[C@@H](CCC(=O)N[C@@H](CCC(=O)NCCCC[C@H](NC(=O)COCCOCCNC(=O)COCCOCCNC(=O)COCCOCCNC(=O)COCCOCCNC(=O)[C@H](CCCCNC(C)=O)NC(=O)[C@H](CCCCN)NC(=O)[C@H](CCCNC(=N)N)NC(=O)[C@](C)(CCCCN)NC(=O)[C@H](CO)NC(=O)[C@H](Cc1c[nH]c2ccccc12)NC(=O)[C@@H](NC(=O)[C@H](CO)NC(=O)[C@H](CCCC)NC(=O)CNC(=O)[C@H](CCC(=O)O)NC(=O)C(C)(C)NC(=O)C(C)(C)NC(=O)[C@@H](NC(=O)[C@H](CCCCNC(C)=O)NC(=O)[C@H](C)NC(=O)[C@H](CCCNC(=N)N)NC(=O)[C@@H](NC(=O)[C@H](CCCCN)NC(=O)[C@H](CCC(=O)O)NC(=O)[C@H](CCCNC(=N)N)NC(=O)CNC(=O)[C@H](CCC(=O)O)NC(=O)[C@H](CC(C)C)NC(C)=O)C(C)C)[C@@H](C)CC)[C@@H](C)O)C(N)=O)C(=O)O)C(=O)O)C(=O)O)C(=O)O [compound 131] (Ac-LEGREKVRAK(Ac)I[Aib][Aib]EG[Nle]STWS[αMeK]RKK(Ac)[AEEA][AEEA][AEEA][AEEA]K([γGlu-γGlu-γGlu-γGlu-Palmitoyl])-NH2) | 0.26 | 92 | 2500 | 6.3 | 1390 | 8 | 82
6 | CCCCCCCCCCCCCCCC(=O)N[C@@H](CCC(=O)NCCCC[C@H](NC(=O)CC[C@H](NC(=O)CC[C@H](NC(=O)CC[C@H](NC(=O)COCCOCCNC(=O)COCCOCCNC(=O)COCCOCCNC(=O)COCCOCCNC(=O)[C@H](CCCCNC(C)=O)NC(=O)[C@H](C)NC(=O)[C@H](CCCNC(=N)N)NC(=O)[C@](C)(CCCCN)NC(=O)[C@H](CO)NC(=O)[C@H](Cc1ccccc1)NC(=O)[C@@H](NC(=O)[C@H](CO)NC(=O)[C@H](CCCC)NC(=O)CNC(=O)[C@H](CCC(=O)O)NC(=O)C(C)(C)NC(=O)C(C)(C)NC(=O)[C@@H](NC(=O)[C@H](CCCCNC(C)=O)NC(=O)[C@H](C)NC(=O)[C@H](CCCNC(=N)N)NC(=O)[C@@H](NC(=O)[C@H](CCCCN)NC(=O)[C@H](CCC(=O)O)NC(=O)[C@H](CCCNC(=N)N)NC(=O)CNC(=O)[C@H](CCC(=O)O)NC(=O)[C@H](CC(C)C)NC(C)=O)C(C)C)[C@@H](C)CC)[C@@H](C)O)C(=O)O)C(=O)O)C(=O)O)C(N)=O)C(=O)O [compound 149] (Ac-LEGREKVRAK(Ac)I[Aib][Aib]EG[Nle]STFS[αMeK]RAK(Ac)[AEEA][AEEA][AEEA][AEEA][γGlu][γGlu][γGlu]K([γGlu-Palmitoyl])-NH2) | 0.11 | 87 | 3330 | 4.33 | 2500 | 6 | 128

Source: patent US10988523B2, “Modified lipidated Relaxin B chain peptides and their therapeutic use” (Sanofi, priority 2018, dated 2021)
